Measurements: article PMC10609152, “Synthesis, Computational, and Anticancer In Vitro Investigations of Aminobenzylnaphthols Derived from 2-Naphtol, Benzaldehydes, and α-Aminoacids via the Betti Reaction” (Molecules, 2023)
Like-named read-outs stand apart in the source and are kept apart here.

Columns and labels:
HT-29 cells = assay: MTT assay, HT-29; type: cell-based; conditions: Homo sapiens
Description: (§1) The MTT assay, also known as the 3-(4,5-dimethylthiazol-2-yl)-2,5-diphenyltetrazolium bromide assay, is a colorimetric assay used in biological and biomedical research to determine cell viability and proliferation. The MTT assay works on the assumption that live cells with active metabolism convert MTT into formazan crystals. These crystals are insoluble; however, they can be dissolved in an organic solvent such as DMSO to produce a colorful solution. The color intensity is proportional to the number of viable cells present in the culture.
(§2) BxPC-3, HT-29, and WI-38 cells were seeded on 96-well plates at a density of approximately 8–10 × 10^3 cells per 100 µL medium/well. Cells were allowed to grow for 24 h in controlled conditions (37 °C; 5% CO2). […] The experimental design included nontreated controls and blanks (wells without cells). Following 24 or 72 h of culture with the investigated compounds, 20 μL of MTT tetrazolium salt (5 mg/mL in PBS) was added to each well, and the plates were incubated for 3 h in a humidified environment (37 °C; 5% CO2). The solutions were withdrawn after incubation, and 100 μL of DMSO was added to dissolve the formazan complexes. Afterward, a spectrophotometer (microplate reader Power Wave XS BioTek Instruments, Inc., Winooski, VT, USA) reading at 570 nm was conducted. The experiments were carried out in duplicates.
(§3) GraphPad Prism 7 software was used to calculate the concentration of an MMZ compound reflecting a 50% growth inhibition (IC50). IC50 is defined as a concentration of tested compound that leads to a reduction in cell pool viability by 50% compared to the negative control (accepted as 100%). % cell viability=Absorbance value of treated cells−Absorbance value of blank/(Absorbance value of untreated cells−Absorbance value of blank)×100%

BxPC-3 cells = assay: MTT assay, BxPC-3; type: cell-based; conditions: Homo sapiens
Description: as §1, §2, §3

[1] = MTT cell viability, WI-38 normal fibroblasts; type: cell-based; conditions: human, read-out: % cell viability ± SD; for viability at 72 h: WI-38, 72 h; for viability at 24 h: WI-38, 24 h
Method: as §2, §3

solubility (remark) = type: physicochemical
[2] = HT-29, 24-h MTT, independent experiment 1, read-out: IC50(1)
[3] = HT-29, 24-h MTT, independent experiment 2, read-out: IC50(2)
[4] = HT-29, 24-h MTT, read-out: Mean IC50 ± SD
[5] = HT-29, 72-h MTT, independent experiment 1, read-out: IC50(1)
[6] = HT-29, 72-h MTT, independent experiment 2, read-out: IC50(2)
[7] = HT-29, 72-h MTT, read-out: Mean IC50 ± SD
[8] = BxPC-3, 24-h MTT, independent experiment 1, read-out: IC50(1)
[9] = BxPC-3, 24-h MTT, independent experiment 2, read-out: IC50(2)
[10] = BxPC-3, 24-h MTT, read-out: Mean IC50 ± SD
[11] = BxPC-3, 72-h MTT, independent experiment 1, read-out: IC50(1)
[12] = BxPC-3, 72-h MTT, independent experiment 2, read-out: IC50(2)
[13] = BxPC-3, 72-h MTT, read-out: Mean IC50 ± SD
[14] = WI-38 normal fibroblast cells, compound at IC50 concentration obtained for HT-29 cells
[15] = HT-29, 24 h, read-out: Mean IC50 ± SD
[16] = HT-29, 72 h, read-out: Mean IC50 ± SD
[17] = BXPC-3, 24 h, read-out: IC50(1)
[18] = BXPC-3, 24 h, read-out: IC50(2)
[19] = BXPC-3, 24 h, read-out: Mean IC50 ± SD
[20] = BXPC-3, 72 h, read-out: IC50(1)
[21] = BXPC-3, 72 h, read-out: IC50(2)
[22] = BXPC-3, 72 h, read-out: Mean IC50 ± SD
[23] = compound at IC50 concentration estimated for BxPC-3 cells
[24] = compound at IC50 concentration obtained for HT-29 cells
[25] = WI-38 normal fibroblast cells, compound at IC50 concentration estimated for BxPC-3 cells

Row | SMILES | IC50 (HT-29 cells; [2]) | IC50 (HT-29 cells; [3]) | IC50 (HT-29 cells; [4]) | IC50 (HT-29 cells; [5]) | IC50 (HT-29 cells; [6]) | IC50 (HT-29 cells; [7]) | IC50 (BxPC-3 cells; [8]) | IC50 (BxPC-3 cells; [9]) | IC50 (BxPC-3 cells; [10]) | IC50 (BxPC-3 cells; [11]) | IC50 (BxPC-3 cells; [12]) | IC50 (BxPC-3 cells; [13]) | also measured
1 | COC(=O)[C@@H](N[C@@H](c1ccccc1)c1c(O)ccc2ccccc12)C(C)C (mixture of isomers) [MMZ-33D, (S,S) and (R,R)-methyl ((2-hydroxynaphthalen-1-yl)(phenyl)methyl)-D-valinate] | 60.4 µM | 61.9 µM | 61.1 ± 1.02 µM | 32.3 µM | 43.4 µM | 37.9 ± 7.86 µM | 47.8 µM | 50.8 µM | 49.3 ± 2.09 µM | 50 µM | 28.7 µM | 39.4 ± 15.1 µM | –
2 | COC(=O)[C@@H](N[C@@H](c1ccc(Cl)cc1)c1c(O)ccc2ccccc12)C(C)C (mixture of isomers) [MMZ-39AA, (S,S) and (R,R)-methyl ((4-chlorophenyl)(2-hydroxynaphthalen-1-yl)methyl)-D-valinate] | 62.1 µM | 64 µM | 63.1 ± 1.36 µM | 50.6 µM | 65.6 µM | 58.1 µM | 61.4 µM | 60.3 µM | 60.8 ± 0.8 µM | 44.8 µM | 41.6 µM | 43.2 ± 2.26 µM | viability at 72 h [1, 14]: 64 ± 4.9%
3 | COC(=O)[C@H](Cc1ccccc1)N[C@H](c1ccccc1)c1c(O)ccc2ccccc12 (mixture of isomers) [MMZ-45B, (S,R) and (R,S)-methyl ((2-hydroxynaphthalen-1-yl)(phenyl)methyl)-L-phenylalaninate] | – | – | – | – | – | – | – | – | – | – | – | – | IC50 (HT-29 cells; HT-29, 24 h, read-out: IC50(1)): 29 µM; IC50 (HT-29 cells; HT-29, 24 h, read-out: IC50(2)): 34.6 µM; IC50 (HT-29 cells; [15]): 31.8 ± 3.93 µM; IC50 (HT-29 cells; HT-29, 72 h, read-out: IC50(1)): 29.6 µM; IC50 (HT-29 cells; HT-29, 72 h, read-out: IC50(2)): 38.7 µM; IC50 (HT-29 cells; [16]): 34.1 ± 6.39 µM; IC50 (BxPC-3 cells; [17]): 58.5 µM; IC50 (BxPC-3 cells; [18]): 40.5 µM; IC50 (BxPC-3 cells; [19]): 49.3 ± 13 µM; IC50 (BxPC-3 cells; [20]): 35.6 µM; IC50 (BxPC-3 cells; [21]): 24.7 µM; IC50 (BxPC-3 cells; [22]): 30.1 ± 7.73 µM; viability at 24 h [1, 23]: 91.73 ± 0.87%; viability at 72 h [1, 23]: 86.7 ± 8.14%; viability at 72 h [1, 24]: 88.2 ± 1.6%
4 | COC(=O)C[C@H](N[C@@H](c1ccccc1)c1c(O)ccc2ccccc12)C(=O)OC (mixture of isomers) [MMZ-147B, (S,S) and (R,R)-dimethyl ((2-hydroxynaphthalen-1-yl)(phenyl)methyl)-L-aspartate] | 44.2 µM | 46.8 µM | 45.5 ± 1.77 µM | 12.2 µM | 17.6 µM | 14.9 ± 3.8 µM | 44.8 µM | 59.7 µM | – | 69.8 µM | 39.3 µM | 54.6 µM | viability at 24 h [1, 25]: 69.94 ± 0.21%; viability at 72 h [1, 25]: 72.5 ± 4.37%; viability at 72 h [1, 14]: 86.8 ± 5%
5 | COC(=O)C[C@H](N[C@H](c1ccccc1)c1c(O)ccc2ccccc12)C(=O)OC (mixture of isomers) [MMZ-147CE, (S,R) and (R,S)-dimethyl ((2-hydroxynaphthalen-1-yl)(phenyl)methyl)-L-aspartate] | – | – | – | – | – | – | – | – | – | – | – | – | IC50 (HT-29 cells; HT-29, 24 h, read-out: IC50(1)): 113 µM; IC50 (HT-29 cells; HT-29, 24 h, read-out: IC50(2)): 110 µM; IC50 (HT-29 cells; [15]): 112 ± 2.12 µM; IC50 (HT-29 cells; HT-29, 72 h, read-out: IC50(1)): 37.1 µM; IC50 (HT-29 cells; HT-29, 72 h, read-out: IC50(2)): 46.1 µM; IC50 (HT-29 cells; [16]): 41.6 ± 6.32 µM; IC50 (BxPC-3 cells; [17]): 54.1 µM; IC50 (BxPC-3 cells; [18]): 41 µM; IC50 (BxPC-3 cells; [19]): 47.5 ± 9.26 µM; IC50 (BxPC-3 cells; [20]): 59.6 µM; IC50 (BxPC-3 cells; [21]): 34.1 µM; IC50 (BxPC-3 cells; [22]): 46.8 ± 18 µM; viability at 24 h [1, 23]: 82.5 ± 1.8%; viability at 72 h [1, 24]: 66.9 ± 1.08%
6 | COC(=O)CC[C@H](N[C@@H](c1ccccc1)c1c(O)ccc2ccccc12)C(=O)OC (mixture of isomers) [MMZ-148B, (S,S) and (R,R)-dimethyl ((2-hydroxynaphthalen-1-yl)(phenyl)methyl)-L-glutamate] | – | – | – | – | – | – | – | – | – | – | – | – | solubility (solubility (remark)): poor solubility
7 | COC(=O)CC[C@H](N[C@H](c1ccccc1)c1c(O)ccc2ccccc12)C(=O)OC (mixture of isomers) [MMZ-148C, (S,R) and (R,S)-dimethyl ((2-hydroxynaphthalen-1-yl)(phenyl)methyl)-L-glutamate] | – | – | – | – | – | – | – | – | – | – | – | – | solubility (solubility (remark)): poor solubility
8 | COC(=O)[C@H](CC(C)C)N[C@@H](c1ccccc1)c1c(O)ccc2ccccc12 (mixture of isomers) [MMZ-167C, (S,S) and (R,R)-methyl ((2-hydroxynaphthalen-1-yl)(phenyl)methyl)-L-leucinate] | 47.7 µM | 50 µM | – | 27.8 µM | 28.4 µM | 28.1 ± 0.375 µM | 71.4 µM | 61 µM | 66.2 ± 7.36 µM | 32.9 µM | 31.2 µM | 32.1 ± 1.15 µM | viability at 24 h [1, 25]: 76.8 ± 1.8%; viability at 24 h [1, 14]: 82.19 ± 0.69%
9 | O=c1[nH]cc(F)c(=O)[nH]1 [5-Fluorouracil, reference compound] | 48.8 µM | 55.7 µM | 52.3 ± 4.9 µM | 5.16 µM | 3.6 µM | 4.38 ± 1.1 µM | 49.4 µM | 28.6 µM | 39 ± 14.7 µM | 14.8 µM | 12.1 µM | 13.4 ± 1.9 µM | –
